Among the data in publication PMC9736275 (International Journal of Molecular Sciences, 2022) are Km values, retold here.

The target in this test is T1, ATA-Gze (Fusarium graminearum, UniProt I1RDQ2).
T1 construct: gene FGRAMPH1_01T04291
T1 sequence (I1RDQ2 1-325): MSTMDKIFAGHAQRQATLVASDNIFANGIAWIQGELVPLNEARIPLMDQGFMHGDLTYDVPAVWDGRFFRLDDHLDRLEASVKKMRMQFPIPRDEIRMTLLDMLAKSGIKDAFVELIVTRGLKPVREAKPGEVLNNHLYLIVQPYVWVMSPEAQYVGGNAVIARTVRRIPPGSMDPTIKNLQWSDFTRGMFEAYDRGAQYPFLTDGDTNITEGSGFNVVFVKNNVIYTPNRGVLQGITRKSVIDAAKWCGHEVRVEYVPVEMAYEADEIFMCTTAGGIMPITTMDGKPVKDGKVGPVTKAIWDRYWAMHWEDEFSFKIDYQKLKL

In the case of `C[C@@H](N)c1ccccc1` [(R)-1-phenylethylamine], the Km result is “The kinetic parameters are shown in Table S3 and Figure S1”.
